Laboratory results from US10478404B2, “Materials, methods and devices for altering cell reactivity” (The Arizona Board of Regents on behalf of The University of …, priority 2014, dated 2019).

Experiments:
[1] = test system: gel-filtered platelets (GFP); assay: Platelet activity state (PAS) assay of gel-filtered platelets under constant shear (cone-plate viscometer); assay type: cell-based, Human
Experimental: (§1) Human blood was collected from healthy volunteers in citrated buffers. Platelet rich plasma (PRP) and gel-filtered platelets (GFP) were isolated as previously described (Girdhar, et al., PLOS One, 7(3):e32463 (2012)) then treated with percentages of DMSO (v/v) ranging from 0.95%-60%. Platelet activity state (PAS) assay of GFP sheared at 30 dyne/cm^2 via con-plate viscometer and light transmission aggregometry (LTA) of PRP and GFP induced by ADP and collagen were performed.
In some experiments, varying percentages of DMSO were added to platelets, which were then subjected to defined sheer.

[2] = test system: Platelet rich plasma (PRP); assay: Light transmission aggregometry (LTA) with chemical agonists; assay type: cell-based, Human
Experimental: as §1
(§2) Light transmission aggregometry (LTA) was performed to detect platelet desensitization using arachidonic acid, ADP, collagen, epinephrine, and ristocetin. Platelets were fixed and visualized at the varying DMSO treatments under scanning electron microscopy (SEM). […] DMSO has no effect on ristocetin-induced platelet aggregation.
To examine whether membrane modulation impacted biochemical as well as shear-mediated platelet activation the following study was performed. Platelet rich plasma (PRP) was pre-incubated with varying concentrations of DMSO. PRP was then exposed to a variety of chemical agonists (ADP, Col, EpPi, Arac. Acid, or none (control)).

platelets [3] = assay: Scanning electron microscopy (SEM) of fixed DMSO-treated platelets; assay type: cell-based, Human; conditions: 5% and 10% DMSO
Experimental: as §2

platelets [4] = assay: Hyper-shear exposure via platelet hammer device (PAS); assay type: cell-based, Human; conditions: 0.95% (v/v) DMSO pre-incubation; shear 100-1000 dynes/cm^2; FIG. 1B
Experimental: To further extend the above observation, platelets were pre-incubated with DMSO, at 0.95% (v/v), and then subjected to much higher levels of shear via a platelet hammer device, i.e. shear from 100-1000 dynes/cm^2. […] These levels correlate with the levels experienced in VADs and other high shear MCS devices.

GFP = assay: Shear-mediated platelet activation with actin stabilizing/depolymerization drugs; assay type: cell-based, human; conditions: 70 dyn shearing force; compared to control cells with 0.1% DMSO; FIG. 2B
Experimental: Platelets were collected from human volunteers and PRP obtained as described above. Platelet-activation was determined (biochemical vs. shear mediated) was determined within the context of modulation of intracellular microfilament action, as measured by the effect on actin was determined. Actin is a globular multi-functional protein that forms microfilaments. It is found in almost all eukaryotic cells where it may be present at concentrations of over 100 μM. An actin protein's mass is roughly 42-kDa and it is the monomeric subunit of two types of filaments in cells: microfilaments, one of the three major components of the cytoskeleton, and thin filaments, part of the contractile apparatus in muscle cells. It can be present as either a free monomer called G-actin (globular) or as part of a linear polymer microfilament called F-actin (filamentous).
Whole blood aggregation was determined in the presence of ADP in cells treated with cytochalasin B (FIG. 2A). Cystochalasin B inhibits both the rate of actin polymerization and the interaction of actin filaments in solution. Maclean-Fletcher, Cell, 20(2):329-41 (1980). The effect of actin stabilizing/depolymerization drugs (Jasplakinolide and cystochalasin B) in shear-mediated platelet activation was measured in GFP. […]

platelets [5] = assay: Shear-induced platelet activation (PAS) with membrane modulators; assay type: cell-based, human
Experimental: Platelets were obtained as previously described and the effect of […] on biochemical or shear-induced (70 dyn shearing force) platelet activation was determined. Membrane modulation was effected using hydrophobic molecules such as Docosahexaenoic acid (DHA) and Eicosapentaenoic acid (EPA), the structures of which are shown below.
Shear-mediated platelet activation was also measured in the presence of DHA, EPA and wild salmon oil (FIG. 4B-C).
Shear-mediated and biochemical mediated platelet activation was also measured in the presence of the amphipathic molecules, cholesterol and lecithin. Cholesterol adds firmness and integrity to the plasma membrane and prevents it from becoming overly fluid i.e., cholesterol helps the membrane maintain its fluidity. In the studies including cholesterol, cholesterol-treated cells were compared with cells treated with 0.1% DMSO.

Question: Which “protection of platelets from shear-induced activation in comparison to control (PAS assay)” value ([1]; 5% DMSO, 5 min of 30 dyne/cm^2) does the source give for `C[S+](C)[O-]` [DMSO, dimethysulfoxide] here?
Answer: up to 90%

Question: And the “DMSO percentage giving the same level of protection at longer shear exposure” value ([1]; 10 min of 30 dyne/cm^2)?
Answer: 10%

Question: What about the “most effective DMSO percentage in protecting platelets from activation by constant shear stress and aggregation by chemical agonists” value ([1]; DMSO range tested 0.95%-60%) of the same compound?
Answer: 5 % (v/v)

Question: What about the “DMSO concentration with best protective effect” value ([1]; shear 30-70 dynes/cm^2, FIG. 1A) of the same compound?
Answer: 1-5%

Question: And the ristocetin-induced platelet aggregation [2]?
Answer: no effect

Question: And the “collagen-induced PRP aggregation” value ([2]; 0.95% to 10% DMSO)?
Answer: limited effect

Question: And the “epinephrine-induced PRP aggregation” value ([2]; 0.95% to 10% DMSO)?
Answer: limited effect

Question: What about the arachidonic acid-induced aggregation ([2]; 5% DMSO) of the same compound?
Answer: inhibition

Question: What about the “maximal aggregation (LTA)” value ([2]; 5% DMSO-pretreated platelets) of the same compound?
Answer: lower maximal aggregation

Question: What about the “platelet aggregation rate (LTA)” value ([2]; 5% DMSO-pretreated platelets) of the same compound?
Answer: slower platelet aggregation rate

Question: And the ADP-induced aggregation ([2]; 10% DMSO)?
Answer: inhibition

Question: And the agonist-mediated platelet activation ([2]; PRP pre-incubated with varying DMSO, ADP, Col, Epi, Arac. Acid, inhibitory peak at higher DMSO concentrations than for shear, FIG. 1C)?
Answer: reduction of agonist-mediated activation

Question: What about the “filopodia (SEM of platelets)” value (platelets [3]) of the same compound?
Answer: significant reduction

Question: What about the “tolerance of hyper shear” value (platelets [4]) of the same compound?
Answer: able to tolerate much higher levels of sheer

Question: For `C/C1=C\[C@H](C)C[C@H](C)OC(=O)C[C@H](c2ccc(O)cc2)NC(=O)[C@@H](Cc2c(Br)[nH]c3ccccc23)N(C)C(=O)[C@H](C)NC(=O)[C@@H](C)C1` [Jasplakinolide], which “shear-mediated platelet activation over time” value (GFP) is on record?
Answer: less activation over time

Question: `CC(C)CCC[C@@H](C)[C@H]1CC[C@H]2[C@@H]3CC=C4C[C@@H](O)CC[C@]4(C)[C@H]3CC[C@]12C` [cholesterol] was tested. Which shear-induced platelet activation (platelets [5]; 20 μM and 200 μM cholesterol, 30 dyn and 70 dyn, compared with 0.1% DMSO, FIG. 4D-E) did it give?
Answer: reduces shear-induced platelet activation

Question: For lecithin, which “platelet sensitivity to shear stress” value (platelets [5]; Example 4 data) is on record?
Answer: increase platelet sensitivity to shear stress

Question: What about the “shear-induced platelet activation as measured by PAS” value (platelets [5]; lecithin 25 ug/ml, 30 dyn, GFP, compared to controls, FIG. 4G) of the same compound?
Answer: increases
